Tested on: NL-RLuc virus
Test: Inhibition of HIV replication: NL-RLuc reporter virus in MT-2 cells, luciferase readout
Type: cell-based
Conditions: MT-2 cells infected with NL-RLuc virus, 5 days of incubation, 10% FBS, at least 2 experiments
From the text: Inhibition of HIV Replication:
A recombinant NL-RLuc proviral clone was constructed in which a section of the nef gene from NL4-3 was replaced with the Renilla Luciferase gene. This virus is fully infectious and can undergo multiple cycles of replication in cell culture. In addition, the luciferous reporter provides a simple and easy method for quantitating the extent of virus growth and consequently, the antiviral activity of test compounds. The plasmid pNLRLuc contains the proviral NL-Rluc DNA cloned into pUC 18 at the PvuII site. The NL-RLuc virus was prepared by transfection of 293T cells with the plasmid pNLRLuc. Transfections were performed using the LipofectAMINE PLUS kit from Invitrogen (Carlsbad, Calif.) according to the manufacturer and the virus generated was titered in MT-2 cells. For susceptibility analyses, the titrated virus was used to infect MT-2 cells in the presence of compound, and after 5 days of incubation, cells were processed and quantitated for virus growth by the amount of expressed luciferase. Assay media was RPMI 1640 supplemented with 10% heat inactivated fetal bovine serum (FBS), 100 units/ml penicillin G/100 units/ml streptomycin, 10 mM HEPES buffer pH 7.55 and 2 mM L-glutamine. The results from at least 2 experiments were used to calculate the EC50 values. Luciferase was quantitated using the Dual Luciferase kit from Promega (Madison, Wis.). Susceptibility of viruses to compounds was determined by incubation in the presence of serial dilutions of the compound. The 50% effective concentration (EC50) was calculated by using the exponential form of the median effect equation where (Fa)=1/[1+(ED50/drug conc.)^m](Johnson V A, Byington R T. Infectivity Assay. In Techniques in HIV Research. ed. Aldovini A, Walker B D. 71-76. New York: Stockton Press. 1990).

[1] = Human immunodeficiency virus 1, MT2, 120 h

Row | Structure (SMILES) | EC50 [1] | EC50
1 | Cc1cc(F)c2c(c1)O[C@@H](C)CCCCOC1(C)CCN(CC1)c1c([C@H](OC(C)(C)C)C(=O)O)c(C)cc3nc(cn13)-c1cccc-2c1 [Example 21, (2S)-2-(tert-Butoxy)-2-[(22S)-16-fluoro-4,18,22,28-tetramethyl-21,27-dioxa-1,7,34-triazahexacyclo[26.2.2.1^6,^9.1^10,^14.0^2,^7.0^15,^20]tetratriaconta-2,4,6(34),8,10(33),11,13,15(20),16,18-decaen-3-yl]acetic acid] | 5 nM | 
2 | Cc1ccc2c(c1)-c1cccc(c1)-c1nc3cc(C)c([C@H](OC(C)(C)C)C(=O)O)c(n3c1Cl)N1CCC(C)(CC1)OCCCC[C@H](C)O2 [Example 22, (2S)-2-(tert-Butoxy)-2-[(22S)-8-chloro-4,17,22,28-tetramethyl-21,27-dioxa-1,7,34-triazahexacyclo[26.2.2.1^6,^9.1^10,^14.0^2,^7.0^15,^20]tetratriaconta-2,4,6(34),8,10(33),11,13,15(20),16,18-decaen-3-yl]acetic acid] | 24 nM | 
3 | Cc1cc2nc3c(Cl)n2c(c1[C@H](OC(C)(C)C)C(=O)O)N1CCC(C)(CC1)OCCCC[C@H](C)Oc1cc(F)c(F)cc1-c1cccc-3c1 [Example 23, (2S)-2-(tert-Butoxy)-2-[(22S)-8-chloro-17,18-difluoro-4,22,28-trimethyl-21,27-dioxa-1,7,34-triazahexacyclo[26.2.2.1^6,^9.1^10,^14.0^2,^7.0^15,^20]tetratriaconta-2,4,6(34),8,10(33),11,13,15(20),16,18-decaen-3-yl]acetic acid] | 19 nM | 
4 | Cc1cc2c(cc1F)-c1cccc(c1)-c1nc3cc(C)c([C@H](OC(C)(C)C)C(=O)O)c(n3c1Cl)N1CCC(C)(CC1)OCCCC[C@H](C)O2 [Example 24, (2S)-2-(tert-Butoxy)-2-[(22S)-8-chloro-17-fluoro-4,18,22,28-tetramethyl-21,27-dioxa-1,7,34-triazahexacyclo[26.2.2.1^6,^9.1^10,^14.0^2,^7.0^15,^20]tetratriaconta-2,4,6(34),8,10(33),11,13,15(20),16,18-decaen-3-yl]acetic acid] | 20 nM | 
5 | Cc1cc2c(cc1C)-c1cccc(c1)-c1nc3cc(C)c([C@H](OC(C)(C)C)C(=O)O)c(n3c1Cl)N1CCC(C)(CC1)OCCCC[C@H](C)O2 [Example 25, (2S)-2-(tert-Butoxy)-2-[(22S)-8-chloro-4,17,18,22,28-pentamethyl-21,27-dioxa-1,7,34-triazahexacyclo[26.2.2.1^6,^9.1^10,^14.0^2,^7.0^15,^20]tetratriaconta-2,4,6(34),8,10(33),11,13,15(20),16,18-decaen-3-yl]acetic acid] | 30 nM | 
6 | Cc1cc2nc3c(F)n2c(c1[C@H](OC(C)(C)C)C(=O)O)N1CCC(C)(CC1)OCCCC[C@H](C)Oc1cc(F)c(F)cc1-c1cccc-3c1 [Example 26, (2S)-2-(tert-Butoxy)-2-[(22S)-8,17,18-trifluoro-4,22,28-trimethyl-21,27-dioxa-1,7,34-triazahexacyclo[26.2.2.1^6,^9.1^10,^14.0^2,^7.0^15,^20]tetratriaconta-2,4,6(34),8,10(33),11,13,15(20),16,18-decaen-3-yl]acetic acid] | 26 nM | 
7 | Cc1cc2c(cc1F)-c1cccc(c1)-c1nc3cc(C)c([C@H](OC(C)(C)C)C(=O)O)c(n3c1Br)N1CCC(C)(CC1)OCCCC[C@H](C)O2 [Example 27, (2S)-2-[(22S)-8-Bromo-17-fluoro-4,18,22,28-tetramethyl-21,27-dioxa-1,7,34-triazahexacyclo[26.2.2.1^6,^9.1^10,^14.0^2,^7.0^15,^20]tetratriaconta-2,4,6(34),8,10(33),11,13,15(20),16,18-decaen-3-yl]-2-(tert-butoxy)acetic acid] | 13 nM | 
8 | Cc1cc2c(cc1F)-c1cccc(c1)-c1nc3cc(C)c([C@H](OC(C)(C)C)C(=O)O)c(n3c1Br)N1CCC(C)(CC1)OCCCC[C@H](C)O2 [Example 28, (2S)-2-[(22S)-8-Bromo-17-fluoro-4,18,22,28-tetramethyl-21,27-dioxa-1,7,34-triazahexacyclo[26.2.2.1^6,^9.1^10,^14.0^2,^7.0^15,^20]tetratriaconta-2,4,6(34),8,10(33),11,13,15(20),16,18-decaen-3-yl]-2-(tert-butoxy)acetic acid] |  | 8 nM
9 | Cc1cc2c(cc1F)-c1cccc(c1)-c1nc3c(Br)c(C)c([C@H](OC(C)(C)C)C(=O)O)c(n3c1Cl)N1CCC(C)(CC1)OCCCC[C@H](C)O2 [Example 29, (2S)-2-[(22S)-5-Bromo-8-chloro-17-fluoro-4,18,22,28-tetramethyl-21,27-dioxa-1,7,34-triazahexacyclo[26.2.2.1^6,^9.1^10,^14.0^2,^7.0^15,^20]tetratriaconta-2,4,6(34),8,10(33),11,13,15(20),16,18-decaen-3-yl]-2-(tert-butoxy)acetic acid] | 30 nM | 
10 | Cc1cc2c(cc1F)-c1cccc(c1)-c1cn3c(c([C@H](OC(C)(C)C)C(=O)O)c(C)c(C)c3n1)N1CCC(C)(CC1)OCCCC[C@H](C)O2 [Example 30, (2S)-2-(tert-Butoxy)-2-[(22S)-17-fluoro-4,5,18,22,28-pentamethyl-21,27-dioxa-1,7,34-triazahexacyclo[26.2.2.1^6,^9.1^10,^14.0^2,^7.0^15,^20]tetratriaconta-2,4,6(34),8,10(33),11,13,15(20),16,18-decaen-3-yl]acetic acid] | 21 nM | 
11 | Cc1cc2c(cc1F)-c1cccc(c1)-c1cn3c(c([C@H](OC(C)(C)C)C(=O)O)c(C)c(NS(C)(=O)=O)c3n1)N1CCC(C)(CC1)OCCCC[C@H](C)O2 [Example 31, (2S)-2-(tert-Butoxy)-2-[(22S)-17-fluoro-5-methanesulfonamido-4,18,22,28-tetramethyl-21,27-dioxa-1,7,34-triazahexacyclo[26.2.2.1^6,^9.1^10,^14.0^2,^7.0^15,^20]tetratriaconta-2,4,6(34),8,10(33),11,13,15(20),16,18-decaen-3-yl]acetic acid] | 19 nM | 
12 | Cc1c([C@H](OC(C)(C)C)C(=O)O)c2n3cc(nc3c1Br)-c1cccc(c1)-c1cc(F)ccc1O[C@@H](C)CCCCOC1(C)CCN2CC1 [Example 32, (2S)-2-[(22S)-5-Bromo-17-fluoro-4,22,28-trimethyl-21,27-dioxa-1,7,34-triazahexacyclo[26.2.2.1^6,^9.1^10,^14.0^2,^7.0^15,^20]tetratriaconta-2,4,6(34),8,10(33),11,13,15(20),16,18-decaen-3-yl]-2-(tert-butoxy)acetic acid] | 10 nM | 
13 | Cc1c([C@H](OC(C)(C)C)C(=O)O)c2n3cc(nc3c1C)-c1cccc(c1)-c1cc(F)ccc1O[C@@H](C)CCCCOC1(C)CCN2CC1 [Example 33, (2S)-2-(tert-Butoxy)-2-[(22S)-17-fluoro-4,5,22,28-tetramethyl-21,27-dioxa-1,7,34-triazahexacyclo[26.2.2.1^6,^9.1^10,^14.0^2,^7.0^15,^20]tetratriaconta-2,4,6(34),8,10(33),11,13,15(20),16,18-decaen-3-yl]acetic acid] | 25 nM | 
14 | Cc1cc2nc3cn2c(c1[C@H](OC(C)(C)C)C(=O)O)N1CCC(C)(CC1)OC/C=C/C[C@H](C)Oc1c(F)cccc1-c1cccc-3c1 [Example 34, (2S)-2-(tert-Butoxy)-2-[(22S,24E)-19-fluoro-4,22,28-trimethyl-21,27-dioxa-1,7,34-triazahexacyclo[26.2.2.1^6,^9.1^10,^14.0^2,^7.0^15,^20]tetratriaconta-2,4,6(34),8,10(33),11,13,15(20),16,18,24-undecaen-3-yl]acetic acid] | 3 nM | 
15 | Cc1cc2nc3cn2c(c1[C@H](OC(C)(C)C)C(=O)O)N1CCC(C)(CC1)OCCCC[C@H](C)Oc1c(F)cccc1-c1cccc-3c1 [Example 35, (2S)-2-(tert-Butoxy)-2-[(22S)-19-fluoro-4,22,28-trimethyl-21,27-dioxa-1,7,34-triazahexacyclo[26.2.2.1^6,^9.1^10,^14.0^2,^7.0^15,^20]tetratriaconta-2,4,6(34),8,10(33),11,13,15(20),16,18-decaen-3-yl]acetic acid] | 7 nM | 
16 | Cc1c([C@H](OC(C)(C)C)C(=O)O)c2n3cc(nc3c1Br)-c1cccc(c1)-c1cccc(F)c1O[C@@H](C)CCCCOC1(C)CCN2CC1 [Example 36, (2S)-2-[(22S)-5-Bromo-19-fluoro-4,22,28-trimethyl-21,27-dioxa-1,7,34-triazahexacyclo[26.2.2.1^6,^9.1^10,^14.0^2,^7.0^15,^20]tetratriaconta-2,4,6(34),8,10(33),11,13,15(20),16,18-decaen-3-yl]-2-(tert-butoxy)acetic acid] | 10 nM | 
17 | Cc1c([C@H](OC(C)(C)C)C(=O)O)c2n3cc(nc3c1C)-c1cccc(c1)-c1cccc(F)c1O[C@@H](C)CCCCOC1(C)CCN2CC1 [Example 37, (2S)-2-(tert-Butoxy)-2-[(22S)-19-fluoro-4,5,22,28-tetramethyl-21,27-dioxa-1,7,34-triazahexacyclo[26.2.2.1^6,^9.1^10,^14.0^2,^7.0^15,^20]tetratriaconta-2,4,6(34),8,10(33),11,13,15(20),16,18-decaen-3-yl]acetic acid] | 10 nM | 

From patent US9409922B2, “Imidazopyridine macrocycles as inhibitors of human immunodeficiency virus replication” (priority 2014, dated 2016)
